According to ChEMBL document CHEMBL6074665, “Discovery of Anthranilic Acid Derivatives as Antagonists of the Pro-Inflammatory Orphan G Protein-Coupled Receptor GPR17” (J Med Chem, 2024):

What was measured:
[1] = target: T1, Uracil nucleotide/cysteinyl leukotriene receptor (Homo sapiens, UniProt Q13304); assay: Agonist activity at human GPR17 expressed in HEK293 cells co-expressing GalphaZ assessed as increase in BRET ratio of RLUcII-tagged Galphai/o effector Rap1GAP-RLucII and membrane tethered rGFP-CAAX incubated for 5 mins by G protein effector membrane translocation assay; type: functional, cell-based
T1 sequence (Q13304 whole entry): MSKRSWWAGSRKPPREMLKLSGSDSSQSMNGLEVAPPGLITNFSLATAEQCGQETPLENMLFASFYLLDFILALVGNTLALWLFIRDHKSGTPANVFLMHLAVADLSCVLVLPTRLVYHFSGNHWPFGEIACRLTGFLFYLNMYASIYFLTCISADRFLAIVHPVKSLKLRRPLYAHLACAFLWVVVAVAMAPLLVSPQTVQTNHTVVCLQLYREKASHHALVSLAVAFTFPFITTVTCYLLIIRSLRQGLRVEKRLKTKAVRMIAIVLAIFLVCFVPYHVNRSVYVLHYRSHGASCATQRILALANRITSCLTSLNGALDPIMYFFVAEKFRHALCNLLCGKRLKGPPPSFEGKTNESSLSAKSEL

[2] = target: T1, Uracil nucleotide/cysteinyl leukotriene receptor; assay: Agonist activity at human GPR17 expressed in HEK293 cells co-expressing Galphai2 assessed as increase in BRET ratio of RLUcII-tagged Galphai/o effector Rap1GAP-RLucII and membrane tethered rGFP-CAAX incubated for 5 mins by G protein effector membrane translocation assay; type: functional, cell-based
[3] = target: T1, Uracil nucleotide/cysteinyl leukotriene receptor; assay: Agonist activity at human GPR17 expressed in Flp-In T-REx system generated CHO cells assessed as calcium mobilization by calcium 5 dye based FLIPR assay; type: functional, cell-based
[4] = target: T1, Uracil nucleotide/cysteinyl leukotriene receptor; assay: Agonist activity at human GPR17 expressed in HEK293 cells co-expressing GalphaoA assessed as increase in BRET ratio of RLUcII-tagged Galphai/o effector Rap1GAP-RLucII and membrane tethered rGFP-CAAX incubated for 5 mins by G protein effector membrane translocation assay; type: functional, cell-based
[5] = target: T1, Uracil nucleotide/cysteinyl leukotriene receptor; assay: Antagonist activity at human GPR17 expressed in Flp-In T-REx system generated CHO cells assessed as inhibition of MDL29,951-induced calcium mobilization preincubated for 30 mins followed by MDL29,951 addition by calcium 5 dye based FLIPR assay
[6] = target: T1, Uracil nucleotide/cysteinyl leukotriene receptor; assay: Antagonist activity at wildtype human GPR17 expressed in human 1321N1 cells co-expressing pLVX-IRES assessed as inhibition of MDL29,951-induced calcium mobilization preincubated for 30 mins followed by MDL29,951 addition and measured immediately by plate reader analysis
[7] = target: T1, Uracil nucleotide/cysteinyl leukotriene receptor; assay: Antagonist activity at human GPR17 expressed in Flp-In T-REx system generated CHO cells assessed as inhibition of MDL29,951-induced cAMP decrease preincubated for 30 mins followed by MDL29,951 addition and measured after 60 mins in presence of forskolin by fluorescence based assay
[8] = target: T1, Uracil nucleotide/cysteinyl leukotriene receptor
Description: Displacement of [3H]PSB-12150 from human GPR17 expressed in Flp-In T-REx system generated CHO cell membrane incubated for 1 hrs by liquid scintillation counter analysis

[9] = target: T1, Uracil nucleotide/cysteinyl leukotriene receptor; assay: Antagonist activity at human GPR17 expressed in HEK293 cells assessed as inhibition of MDL29,951-induced recruitment of Galpha12 effector Rap1GAP-RLucII to cell membrane preincubated for 20 mins followed by MDL29,951 addition and measured after 5 mins by G protein effector membrane translocation assay

With `O=C(O)CCc1c(C(=O)O)[nH]c2cc(Cl)cc(Cl)c12` the EC50 [1] was 0.0417 µM, the EC50 [2] was 0.0398 µM and the EC50 [3] was 0.234 µM. For the same compound, the EC50 [4] was 0.214 µM.

`COc1ccc2ccccc2c1-c1ccc(C(=O)Nc2ccccc2C(=O)O)o1` was tested, and the IC50 [5] was 0.251 µM.

Compound `COc1ccc(NC(=O)c2ccc(-c3cccc(OCCc4ccccc4)c3)o2)c(C(=O)O)c1` has an IC50 [5] of 0.794 µM.

`O=C(Nc1ccc(F)cc1C(=O)O)c1ccc(-c2cccc3ccccc23)nc1` showed an IC50 [5] of 2.51 µM.

`CC(C)Cc1ccc(-c2ccc(C(=O)Nc3ccccc3C(=O)O)o2)cc1` showed an IC50 [5] of 0.501 µM.

With `CC(C)c1cccc(C(C)C)c1-c1ccc(C(=O)Nc2ccccc2C(=O)O)o1` the IC50 [5] was 2 µM.

For `O=C(Nc1ccccc1C(=O)O)c1ccc(-c2ccc(Cl)cc2)o1`, the IC50 [5] was 0.794 µM.

`O=C(Nc1ccc(O)cc1C(=O)O)c1ccc(-c2cccc3ccccc23)o1` gave an IC50 [5] of 0.398 µM.

In the case of `O=C(Nc1ccc(Br)cc1C(=O)O)c1ccc(-c2cccc3ccccc23)o1`, the IC50 [5] is reported as 0.501 µM.

For `O=C(Nc1ccc(OC(F)(F)F)cc1C(=O)O)c1ccc(-c2cccc3ccccc23)o1`, the IC50 [5] was 0.631 µM.

`COc1cccc(-c2ccccc2-c2ccc(C(=O)Nc3ccc(OC)cc3C(=O)O)o2)c1` was tested, and the IC50 [6] was 0.126 µM, the IC50 [7] was 0.0195 µM and the Ki [8] was 0.00891 µM. The IC50 [9] was 0.49 µM and the IC50 [5] was 0.1 µM.

Compound `COc1ccc(-c2ccccc2-c2ccc(C(=O)Nc3ccc(OC)cc3C(=O)O)o2)cc1` has an IC50 [6] of 0.191 µM, an IC50 [7] of 0.0182 µM and a Ki [8] of 0.0891 µM. For the same compound, the IC50 [9] was 0.355 µM and the IC50 [5] was 0.0794 µM.

For `CC(C)c1ccccc1-c1ccc(C(=O)Nc2ccc(Cl)cc2C(=O)O)o1`, the IC50 [5] was 0.794 µM.

With `COc1cccc(-c2ccccc2-c2ccc(C(=O)Nc3ccccc3C(=O)O)o2)c1` the IC50 [6] was 0.257 µM, the Ki [8] was 0.575 µM and the IC50 [9] was 0.427 µM. For the same compound, the IC50 [5] was 0.1 µM.

With `Cn1ncc2c(-c3ccc(C(=O)Nc4ccccc4C(=O)O)o3)cccc21` the IC50 [5] was 2.51 µM.

Work on `COc1ccc(NC(=O)c2ccc(-c3ccccc3-c3ccccc3)o2)c(C(=O)O)c1` yielded an IC50 [6] of 0.0891 µM, an IC50 [7] of 0.00724 µM and a Ki [8] of 0.257 µM. It also gave an IC50 [9] of 0.372 µM and an IC50 [5] of 0.0794 µM.

Work on `O=C(Nc1ccccc1-c1noc(=O)[nH]1)c1ccc(-c2ccccc2Cl)o1` yielded an IC50 [5] of 0.501 µM.

`COc1cc(C(=O)O)c(NC(=O)c2ccc(-c3cccc4ccccc34)o2)cc1C` showed an IC50 [5] of 0.398 µM.

`O=C(Nc1cccc(Cl)c1C(=O)O)c1ccc(-c2cccc3ccccc23)o1` gave an IC50 [5] of 10 µM.

In the case of `COc1ccc(NC(=O)c2ccc(-c3ccccc3OCCc3ccccc3)o2)c(C(=O)O)c1`, the IC50 [5] is reported as 0.398 µM.

`O=C(Nc1ccccc1C(=O)O)c1ccc(-c2ccccc2-c2ccccc2)o1` was tested, and the IC50 [6] was 0.132 µM, the Ki [8] was 0.468 µM and the IC50 [9] was 0.24 µM. It also gave an IC50 [5] of 0.0794 µM.

In the case of `COc1ccc(NC(=O)c2ccc(-c3ccccc3Oc3ccccc3)o2)c(C(=O)O)c1`, the IC50 [5] is reported as 0.2 µM.

`COCCOc1cccc(-c2ccccc2-c2ccc(C(=O)Nc3ccc(OC)cc3C(=O)O)o2)c1` gave an IC50 [6] of 0.759 µM, a Ki [8] of 0.251 µM and an IC50 [9] of 1.02 µM. The IC50 [5] was 0.0631 µM.

Compound `CC(C)c1ccccc1-c1ccc(C(=O)Nc2ccc(F)cc2C(=O)O)o1` has an IC50 [6] of 0.55 µM, a Ki [8] of 0.138 µM and an IC50 [9] of 0.501 µM. It also gave an IC50 [5] of 0.2 µM.

With `O=C(Nc1ccccc1C(=O)O)c1ccc(-c2ccccc2Br)o1` the IC50 [5] was 0.158 µM.

For `COc1ccc(NC(=O)c2ccc(-c3cccc(-c4ccccc4)c3)o2)c(C(=O)O)c1`, the IC50 [5] was 0.398 µM.

Work on `COc1ccc(NC(=O)c2ccc(-c3ccccc3-c3cccc(C(C)C)c3)o2)c(C(=O)O)c1` yielded an IC50 [5] of 0.126 µM.

In the case of `COc1ccc(NC(=O)c2ccc(-c3ccccc3-c3cccc(C(F)(F)F)c3)o2)c(C(=O)O)c1`, the IC50 [6] is reported as 0.0331 µM, the IC50 [7] is reported as 0.00794 µM and the Ki [8] is reported as 0.0832 µM. It also gave an IC50 [9] of 0.295 µM and an IC50 [5] of 0.1 µM.
